According to patent US9464049B2, “Indole-carboxamides” (Hoffmann-La Roche Inc., priority 2013, dated 2016):

Assays:
[1] = test system: human embryonic stem cell derived neural stem cells (NSCs); assay: Neural stem cell proliferation assay (neurogenesis assay, ATP levels by CellTiterGlo); assay type: cell-based; conditions: Homo sapiens, Neural stem cell, 96 h; compound concentration at which 150% activity of control (100%) is reached; NSC proliferation by ATP (CellTiterGlo) after 4 days incubation; dose response 8 μM to 8 nM
Method: Neural Stem Cell Proliferation Assay
Neurogenic properties of small molecules are determined based on the proliferation of human embryonic stem cell derived neural stem cells (NSCs) which were derived via a dual smad inhibition as previously described (Chambers, S. M., et al., Highly efficient neural conversion of human ES and iPS cells by dual inhibition of SMAD signaling, Nature biotechnology, 2009. 27(3): p. 275-80.)
Compounds respond is measured by the increase in cells based on ATP levels (Promega:CellTiterGlo®) after an incubation period of 4 days.
NSCs are thawed and expanded over 3 passages. On the 14th day, NSCs are seeded in Polyornithin/Laminin coated 384 well plates at a cell density of 21,000 cells/cm^2 in a media volume of 38 μl.
4 hours after cell seeding, compound solutions are added at a volume of 2 μl. Stock solutions of the compounds (water, 5% DMSO) are diluted to obtain a dose response (11 points, dilution factor is 2), ranging from 8 μM to 8 nM. Controls are run to consistently determine the neurogenic properties of the cells: • Negative (neutral) control is cell culture Media (final DMSO concentration: 0.25%). • Positive controls are: • 1. cell culture Media+100 ng/ml FGF2 (final DMSO concentration: 0.1%) • 2. cell culture Media+20 ng/ml EGF (final DMSO concentration: 0.1%) • 3. cell culture Media+100 ng/ml Wnt3a (final DMSO concentration: 0.1%)
After 4 days incubation at 37° C., 5% CO2, the amount of ATP per well is quantified. The ATP concentration is proportional to the cell number. ATP is quantified by using the Promega CellTiterGlo® kit. The CellTiterGlo® reagents contain a cell lysis buffer, a thermo stable luciferase (UltraGlo™ recombinant luciferase), magnesium and luciferin. Luciferin reacts with ATP producing oxyluciferin, AMP and light. The luminescence signal is proportional to the ATP content.
The value of negative (neutral) control is determined for each assay plate by taking the average of 16 negative control wells. The neurogenic compound response is calculated for each compound as (compound/Negative Control)*100.
The values of EC150 from the dose response curve are determined for each test compound. The EC150 is the compound concentration at which 150% activity of control (100%) is reached.

SMILES	melting point [°C]	EC (150% of control) [1] [µM]
Cc1c(C(N)=O)n(C)c2c(-c3ccc(C(F)(F)F)cc3)cc(Cl)cc12 [Example 18, 5-Chloro-1,3-dimethyl-7-[4-(trifluoromethyl)phenyl]indole-2-carboxamide]	206	2.8
Cc1c(C(N)=O)n(C)c2c(-c3ccc(F)cc3F)cc(F)cc12 [Example 64, 7-(2,4-Difluorophenyl)-5-fluoro-1,3-dimethylindole-2-carboxamide]	192	0.091
Cc1c(C(N)=O)n(C)c2c(-c3ccc(F)cc3F)cc(Cl)cc12 [Example 29, 5-Chloro-7-(2,4-difluorophenyl)-1,3-dimethylindole-2-carboxamide]	220	0.23

Now from value to compound, other results behind:

melting point [°C]	SMILES	EC (150% of control) [1] [µM]
243	Cc1c(C(N)=O)[nH]c2c(-c3ccc(C(F)(F)F)cc3)cc(C#N)cc12 [Example 8, 5-Cyano-3-methyl-7-[4-(trifluoromethyl)phenyl]-1H-indole-2-carboxamide]	0.4
173	Cc1c(C(N)=O)[nH]c2c(-c3ccc(F)cc3)cc(Cl)cc12 [Example 11, 5-Chloro-7-(4-fluorophenyl)-3-methyl-1H-indole-2-carboxamide]	0.22
270	Cc1c(C(N)=O)[nH]c2c(-c3ccncc3)cc(F)cc12 [Example 78, 5-Fluoro-3-methyl-7-pyridin-4-yl-1H-indole-2-carboxamide]	0.053
206	Cc1c(C(N)=O)[nH]c2c(-c3ccc(F)c(F)c3)cc(Cl)cc12 [Example 15, 5-Chloro-7-(3,4-difluorophenyl)-3-methyl-1H-indole-2-carboxamide]	0.64
291	Cc1c(C(N)=O)[nH]c2c(-c3ccc(Cl)cc3)cc(C#N)cc12 [Example 10, 7-(4-Chlorophenyl)-5-cyano-3-methyl-1H-indole-2-carboxamide]	0.21
